Assay results from patent publication US10940150B2, “Thymine derivatives and quinazoline-dione derivatives for the inhibition of HSP27” (TECHNISCHE UNIVERSITAET DRESDEN, priority 2014, dated 2021).
Values belong to the molecule of their own block, whether it stands above or below them.

Tests used:
[1] = target: HSP27 (Homo sapiens, UniProt P04792); assay: Capillary electrophoresis of heat-denatured citrate synthase protein precipitates; format: biochemical; conditions: for Efficacy compared with BVDU: 10 μmol/L vs 750 μmol/L BVDU
Procedure, shortened: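 Heat-denatured citrate synthase (1.44 μmol/L) with HSP27 (481 nmol/L) in 40 mmol/L HEPES pH 7.4; precipitates pelleted at 16,000×g, 10 min, room temperature, and quantified by capillary electrophoresis, BSA-normalized. Test substances at 10 μmol/L; precipitate relative to 750 μmol/L BVDU set at 1.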

[2] = test system: U937 cells; assay: Development of resistance to bortezomib in U937 cells; format: cell-based
Protocol: For this purpose, U937 cells (histiocytic lymphoma) were cultured in DMEM culture medium (+10% FCS) at 37° C., 5% CO2 in an H2O-saturated atmosphere. 100,000 cells/ml were seeded and incubated with the cytostatic agent bortezomib (0.1 ng/ml) and the respective test substance (dosage in the current experiment: 1 μM/L acepromazine). The reference substance, BVDU, was employed at a concentration of 30 μM/L. The cells were in each case passaged before the cell count reached 1,000,000 cells/ml. At each passage, 100,000 cells/ml were again seeded and the dose of the cytostatic agent bortezomib was increased stepwise (0.1 ng/mL or 0.05 ng/mL). The concentration of the test substances remained constant. As a result of the stepwise increase in the dosage of the cytostatic agent, resistance developed in the U937 cells. The development of resistance is prevented or inhibited in the case of a positively tested HSP27 inhibitor. The experiments from Example 6 were repeated in the same way, wherein U937 cells (histiocytic lymphoma) are cultured in DMEM culture medium (+10% FCS) at 37° C., 5% CO2 in an H2O-saturated atmosphere. 100,000 cells/ml were seeded and incubated with an initial concentration of 0.2 ng/ml of the cytostatic agent bortezomib and both without an inhibitor and with acepromazine as an HSP27 inhibitor at a concentration of 1 μM/L. The reference substance, BVDU, was employed at a concentration of 30 μM/L. The cells were passaged in each case before the cell count reached 1,000,000 cells/ml. At each passage, 100,000 cells/ml were again seeded and the dose of the cytostatic agent bortezomib was increased stepwise by 0.1 ng/mL. The concentration of the test substance and the reference substance remained constant. As a result of the stepwise increase in the dosage of the cytostatic agent, resistance developed in the U937 cells. The development of resistance is prevented or inhibited in the case of a positively tested HSP27 inhibitor. The cell line U-937 is a histiocytic lymphoma (DSMZ ACC 5). This cell line also responds to treatment with bortezomib, expresses HSP27 and develops resistance to bortezomib. Bortezomib is not the standard therapy for this lymphoma, but is being discussed as a possible therapeutic agent. U-937 cells were seeded with a cell count of 100,000 cells/ml in each case and regularly passaged. […] At the end of the experiment, 70,000 living cells per ml medium could be detected. For the treatment with 30 μmol/L BVDU, a final cell count of 250,000 cells/ml was detected whereas the final cell count in the culture without the addition of an HSP27 inhibitor amounted to 450,000 cells/ml. As a control, U-937 cells were treated with the respective test substances alone, FIG. 10b.

[3] = test system: RPMI-8226 cells; assay: Development of resistance to bortezomib in RPMI-8226 cells; format: cell-based
Protocol: The cell line RPMI-8226 (DMSZ 402) is a “multiple myeloma” cell line and was chosen because bortezomib is employed as a standard therapy for multiple myeloma. RPMI-8226 cells respond to bortezomib, express HSP27 and develop resistance to Velcade. RPMI-8226 cells were seeded at a cell count of 100,000 cells/ml in each case and regularly passaged. […] In contrast, for RPMI 8226 cells that were treated with 30 μmol/L BVDU, a final cell count of 160,000 cells/ml was detected whereas the final cell count for the culture without the addition of an HSP27 inhibitor amounted to 350,000 cells/ml. As a control, RPMI 8226 cells were treated with the respective test substances alone, FIG. 4b.

HSP27, sequence (P04792 whole entry): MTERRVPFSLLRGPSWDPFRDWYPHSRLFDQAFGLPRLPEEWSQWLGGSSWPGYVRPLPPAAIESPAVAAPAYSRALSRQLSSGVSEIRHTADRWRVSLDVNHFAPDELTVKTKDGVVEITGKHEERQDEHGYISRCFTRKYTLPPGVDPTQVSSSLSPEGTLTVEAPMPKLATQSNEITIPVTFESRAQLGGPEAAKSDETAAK

Efficacy compared with BVDU ([1]; 43° C. for 120 minutes (Table 1)): 74.25 x | Efficacy compared with BVDU ([1]; 43° C. for 120 minutes (Table 2)): 74.25 x | Rel. quantity of protein prec. CS ([1]; 10 μmol/L, 43° C. for 120 minutes, relative to 750 μmol/L BVDU = 1 (Table 1)): 0.99 | Rel. quantity of protein prec. CS ([1]; 10 μmol/L, 43° C. for 120 minutes, relative to 750 μmol/L BVDU = 1 (Table 2)): 0.99
SMILES: CC(=O)c1ccc2c(c1)N(CCCN(C)C)c1ccccc1S2 [Acepromazine]
development of resistance to the cytostatic agent bortezomib ([2]; bortezomib 0.1-0.5 ng/ml + 0.75 μmol/L acepromazine (FIG. 10a)): significantly inhibited | living cells at the end of the experiment ([2]; bortezomib 0.1-0.5 ng/ml + 0.75 μmol/L acepromazine (FIG. 10a), without HSP27 inhibitor 450,000 cells/ml): 70,000 living cells per ml medium | development of resistance to bortezomib ([2]; bortezomib 0.1 to 0.5 ng/ml stepwise + 1 μM acepromazine (FIG. 2)): no development of resistance occurred | living cells at the end of the experiment ([2]; bortezomib 0.1 to 0.5 ng/ml stepwise + 1 μM acepromazine (FIG. 2), without HSP27 inhibitor 790,000 cells/ml): no living cells were detectable | development of resistance to bortezomib ([2]; bortezomib 0.2 to 0.4 ng/ml stepwise + 1 μM acepromazine (FIG. 3)): no development of resistance occurred | living cells at the end of the experiment ([2]; bortezomib 0.2 to 0.4 ng/ml stepwise + 1 μM acepromazine (FIG. 3), without HSP27 inhibitor 230,000 cells/ml): no living cells were detectable | development of resistance to the cytostatic agent bortezomib ([3]; bortezomib 0.2-0.4 ng/ml + 0.75 μmol/L acepromazine (FIG. 4a)): significantly inhibited | living cells at the end of the experiment ([3]; bortezomib 0.2-0.4 ng/ml + 0.75 μmol/L acepromazine (FIG. 4a), without HSP27 inhibitor 350,000 cells/ml): 30,000 living cells per ml medium

Rel. quantity of protein prec. CS ([1]; 750 μmol/L, 43° C. for 70 minutes, set at 1 (Table 3)): 1 | Rel. quantity of protein prec. CS ([1]; 750 μmol/L, 43° C. for 120 minutes, set at 1 (Table 1)): 1 | Rel. quantity of protein prec. CS ([1]; 750 μmol/L, 43° C. for 120 minutes, set at 1 (Table 2)): 1
SMILES: O=c1[nH]c(=O)n([C@H]2C[C@H](O)[C@@H](CO)O2)cc1/C=C/Br [BVDU, (E)-5-(2-bromovinyl)-2′-deoxyuridine]
final cell count ([2]; bortezomib 0.1-0.5 ng/ml + 30 μmol/L BVDU (FIG. 10a), without HSP27 inhibitor 450,000 cells/ml): 250,000 cells/ml | final cell count ([2]; bortezomib 0.1-0.5 ng/ml + 30 μmol/L BVDU (FIG. 11a), without HSP27 inhibitor 450,000 cells/ml): 250,000 cells/ml | final cell count ([2]; bortezomib 0.1 to 0.5 ng/ml stepwise + 30 μM BVDU (FIG. 2), without HSP27 inhibitor 790,000 cells/ml): 430,000 cells/ml | final cell count ([2]; bortezomib 0.2 to 0.4 ng/ml stepwise + 30 μM BVDU (FIG. 3), without HSP27 inhibitor 230,000 cells/ml): 60,000 cells/ml | final cell count ([3]; bortezomib 0.075-0.275 ng/ml + 30 μmol/L BVDU (FIG. 9a), without HSP27 inhibitor 510,000 cells/ml): 340,000 cells/ml | final cell count ([3]; bortezomib 0.2-0.4 ng/ml + 30 μmol/L BVDU (FIG. 4a), without HSP27 inhibitor 350,000 cells/ml): 160,000 cells/ml | final cell count ([3]; bortezomib 0.2-0.4 ng/ml + 30 μmol/L BVDU (FIG. 5a), without HSP27 inhibitor 350,000 cells/ml): 160,000 cells/ml
